{"source": "ChEMBL document CHEMBL1201862", "about": "“PubChem BioAssay data set” (2004)", "key": {"[1]": {"target": "Sphingosine 1-phosphate receptor 1 (Homo sapiens, UniProt P21453)", "sequence (P21453 whole entry)": "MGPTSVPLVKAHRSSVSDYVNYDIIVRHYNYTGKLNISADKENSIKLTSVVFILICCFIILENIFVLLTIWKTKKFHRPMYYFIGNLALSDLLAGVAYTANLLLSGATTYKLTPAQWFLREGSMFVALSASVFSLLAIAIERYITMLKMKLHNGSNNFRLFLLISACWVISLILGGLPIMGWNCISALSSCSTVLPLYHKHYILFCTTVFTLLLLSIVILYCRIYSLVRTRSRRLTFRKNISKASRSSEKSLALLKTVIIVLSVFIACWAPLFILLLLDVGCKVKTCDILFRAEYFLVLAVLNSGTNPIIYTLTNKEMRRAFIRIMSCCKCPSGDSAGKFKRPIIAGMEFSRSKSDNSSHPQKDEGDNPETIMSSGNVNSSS", "assay": "Fluorescence-based counterscreen assay for S1P4 agonists: Cell-based dose response high throughput screening assay to identify agonists of the Sphingosine 1-Phosphate Receptor 1 (S1P1). [Related pubchem assays (depositor defined):AID1509, AID1523, AID1801, AID463107, AID463118, AID463119, AID463122, AID463123, AID463129, AID463225, AID504400, AID504460]", "assay_type": "functional"}, "[2]": {"target": "Sphingosine 1-phosphate receptor 4 (Homo sapiens, UniProt O95977)", "sequence (O95977 whole entry)": "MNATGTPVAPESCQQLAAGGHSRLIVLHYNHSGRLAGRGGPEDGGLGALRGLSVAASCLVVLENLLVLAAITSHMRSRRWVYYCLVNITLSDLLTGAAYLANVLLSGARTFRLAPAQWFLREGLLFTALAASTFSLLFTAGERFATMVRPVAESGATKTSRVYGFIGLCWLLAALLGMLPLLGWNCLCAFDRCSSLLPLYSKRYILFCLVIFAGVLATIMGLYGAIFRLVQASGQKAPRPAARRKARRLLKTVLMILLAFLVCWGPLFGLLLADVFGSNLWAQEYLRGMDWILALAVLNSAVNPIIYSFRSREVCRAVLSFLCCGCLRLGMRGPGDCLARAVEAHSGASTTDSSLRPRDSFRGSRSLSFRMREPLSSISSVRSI", "assay": "Fluorescence dose response cell-based high throughput screening assay for agonists of the Sphingosine 1-Phosphate Receptor 4 (S1P4). [Related pubchem assays: 1509 (Primary screen.), 1523 (Confirmation screen in triplicates.)]", "assay_type": "functional"}, "[3]": {"assay": "HEp-2 cell cytotoxicity, dose response, cytotoxicity control for RSV inhibitor project, HTS (AID 2410)", "assay_type": "functional", "conditions": "human respiratory syncytial virus"}, "[4]": {"tested_on": "HeLa", "assay": "HeLa cell cytotoxicity, dose response, cytotoxicity control for MITF activator project, CellTiter-Glo luminescence, cherry-pick samples (AID 540259)", "assay_type": "functional, cell-based", "conditions": "Homo sapiens"}, "[5]": {"assay": "mammalian cell cytotoxicity, dose response, cytotoxicity control, plate reader, cherry-pick samples (AID 504397)", "assay_type": "functional, cell-based"}, "[6]": {"target": "T1, G-protein coupled receptor 55 (Homo sapiens, UniProt Q9Y2T6)", "T1 sequence (Q9Y2T6 whole entry)": "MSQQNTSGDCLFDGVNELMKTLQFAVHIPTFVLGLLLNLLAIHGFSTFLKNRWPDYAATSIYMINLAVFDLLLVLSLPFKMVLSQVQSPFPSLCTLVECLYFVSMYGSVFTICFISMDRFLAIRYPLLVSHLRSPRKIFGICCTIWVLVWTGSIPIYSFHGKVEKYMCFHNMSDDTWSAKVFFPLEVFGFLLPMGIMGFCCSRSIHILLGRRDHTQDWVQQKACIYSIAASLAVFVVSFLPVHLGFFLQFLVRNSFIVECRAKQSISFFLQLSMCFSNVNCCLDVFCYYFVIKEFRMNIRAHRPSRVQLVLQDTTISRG", "assay": "GPR55 antagonists blocking LPI-driven arrestin recruitment, primary screen, imaging, U2OS, beta-arrestin-GFP, LPI agonist (AID 2013);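 also: antagonist potency measured as reduced agonist-driven arrestin aggregation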", "assay_type": "functional"}, "[7]": {"target": "T2, Cannabinoid receptor 2 (Homo sapiens, UniProt P34972)", "T2 sequence (P34972 whole entry)": "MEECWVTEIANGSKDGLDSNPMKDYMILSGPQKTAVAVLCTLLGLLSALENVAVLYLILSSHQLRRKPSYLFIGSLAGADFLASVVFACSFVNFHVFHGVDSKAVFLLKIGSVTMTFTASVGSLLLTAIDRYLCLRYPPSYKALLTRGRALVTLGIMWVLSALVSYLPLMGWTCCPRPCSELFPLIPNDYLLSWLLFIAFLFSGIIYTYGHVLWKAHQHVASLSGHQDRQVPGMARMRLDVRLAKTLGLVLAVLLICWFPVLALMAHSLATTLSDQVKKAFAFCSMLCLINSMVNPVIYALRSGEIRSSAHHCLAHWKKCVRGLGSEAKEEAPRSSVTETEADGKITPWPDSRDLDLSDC", "assay": "SAR analysis of agonists of the Cannabinoid Receptor 2 using an Image-Based Assay. [Related pubchem assays (depositor defined):AID2013, AID2026]", "assay_type": "functional"}, "[8]": {"target": "T2, Cannabinoid receptor 2", "assay": "SAR analysis of antagonists of the Cannabinoid Receptor 2 using an Image-Based Assay. [Related pubchem assays (depositor defined):AID2013, AID2026]", "assay_type": "functional"}, "[9]": {"target": "T1, G-protein coupled receptor 55", "assay": "GPR55 antagonist potency of analogs, SAR follow-up, imaging, U2OS, beta-arrestin-GFP, LPI agonist, set 2 (AID 2820)", "assay_type": "functional"}, "[10]": {"target": "T3, G-protein coupled receptor 35 (Homo sapiens, UniProt Q9HC97)", "T3 sequence (Q9HC97 whole entry)": "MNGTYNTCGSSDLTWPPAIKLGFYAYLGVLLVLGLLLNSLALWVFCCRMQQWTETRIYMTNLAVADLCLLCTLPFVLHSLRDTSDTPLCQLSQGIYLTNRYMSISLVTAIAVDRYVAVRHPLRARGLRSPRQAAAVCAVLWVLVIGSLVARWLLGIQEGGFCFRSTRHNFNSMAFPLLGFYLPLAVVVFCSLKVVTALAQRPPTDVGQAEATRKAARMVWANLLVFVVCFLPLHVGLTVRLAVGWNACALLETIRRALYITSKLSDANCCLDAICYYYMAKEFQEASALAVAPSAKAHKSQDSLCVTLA", "assay": "SAR analysis of Agonists of the GPR35 Receptor using an Image-Based Assay - Set 2. [Related pubchem assays (depositor defined):AID2013, AID2026]", "assay_type": "functional"}, "[11]": {"target": "T4, Cannabinoid receptor 1 (Homo sapiens, UniProt P21554)", "T4 sequence (P21554 whole entry)": "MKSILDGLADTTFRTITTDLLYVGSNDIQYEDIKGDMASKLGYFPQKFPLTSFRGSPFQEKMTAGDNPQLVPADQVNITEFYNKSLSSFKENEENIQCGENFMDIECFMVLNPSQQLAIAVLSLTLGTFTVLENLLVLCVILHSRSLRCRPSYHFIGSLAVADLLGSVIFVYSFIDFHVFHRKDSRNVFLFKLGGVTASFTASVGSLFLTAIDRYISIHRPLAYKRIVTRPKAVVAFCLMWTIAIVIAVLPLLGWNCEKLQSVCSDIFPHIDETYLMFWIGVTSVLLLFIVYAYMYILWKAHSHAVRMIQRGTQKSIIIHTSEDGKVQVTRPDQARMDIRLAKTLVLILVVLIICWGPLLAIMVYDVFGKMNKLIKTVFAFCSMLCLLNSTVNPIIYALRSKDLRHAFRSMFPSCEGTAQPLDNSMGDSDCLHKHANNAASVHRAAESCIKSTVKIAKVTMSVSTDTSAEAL", "assay": "SAR analysis of agonists of the Cannabinoid Receptor 1 using an Image-Based Assay - Set 2. [Related pubchem assays (depositor defined):AID2013, AID2026]", "assay_type": "functional"}, "[12]": {"target": "T3, G-protein coupled receptor 35", "assay": "SAR analysis of Antagonists of the GPR35 Receptor using an Image-Based Assay - Set 3. [Related pubchem assays (depositor defined):AID2013, AID2026]", "assay_type": "functional"}, "[13]": {"target": "T4, Cannabinoid receptor 1", "assay": "SAR analysis of antagonists of the Cannabinoid Receptor 1 using an Image-Based Assay - Set 2. [Related pubchem assays (depositor defined):AID2013, AID2026]", "assay_type": "functional"}, "[14]": {"target": "T3, G-protein coupled receptor 35", "assay": "SAR analysis of Antagonists of the GPR35 Receptor using an Image-Based Assay - Set 6. [Related pubchem assays (depositor defined):AID2013, AID2026]", "assay_type": "functional"}, "[15]": {"target": "T4, Cannabinoid receptor 1", "assay": "SAR analysis of agonists of the Cannabinoid Receptor 1 using an Image-Based Assay - Set 4. [Related pubchem assays (depositor defined):AID2013, AID2026]", "assay_type": "functional"}, "[16]": {"target": "T4, Cannabinoid receptor 1", "assay": "SAR analysis of antagonists of the Cannabinoid Receptor 1 using an Image-Based Assay - Set 4. [Related pubchem assays (depositor defined):AID2013, AID2026]", "assay_type": "functional"}, "[17]": {"target": "T3, G-protein coupled receptor 35", "assay": "SAR analysis of Agonists of the GPR35 Receptor using an Image-Based Assay - Set 4. [Related pubchem assays (depositor defined):AID2013, AID2026]", "assay_type": "functional"}, "[18]": {"target": "T1, G-protein coupled receptor 55", "assay": "SAR Analysis of Selective Antagonists of GPR55 using an Image-Based Assay - Set 4. [Related pubchem assays (depositor defined):AID2013, AID2026]", "assay_type": "functional"}, "[19]": {"target": "T2, Cannabinoid receptor 2", "assay": "SAR analysis of antagonists of the Cannabinoid Receptor 2 using an Image-Based Assay - Set 3. [Related pubchem assays (depositor defined):AID2013, AID2026]", "assay_type": "functional"}, "[20]": {"target": "T2, Cannabinoid receptor 2", "assay": "SAR analysis of agonists of the Cannabinoid Receptor 2 using an Image-Based Assay - Set 3. [Related pubchem assays (depositor defined):AID2013, AID2026]", "assay_type": "functional"}, "[21]": {"target": "Kappa-type opioid receptor (Homo sapiens, UniProt P41145)", "sequence (P41145 whole entry)": "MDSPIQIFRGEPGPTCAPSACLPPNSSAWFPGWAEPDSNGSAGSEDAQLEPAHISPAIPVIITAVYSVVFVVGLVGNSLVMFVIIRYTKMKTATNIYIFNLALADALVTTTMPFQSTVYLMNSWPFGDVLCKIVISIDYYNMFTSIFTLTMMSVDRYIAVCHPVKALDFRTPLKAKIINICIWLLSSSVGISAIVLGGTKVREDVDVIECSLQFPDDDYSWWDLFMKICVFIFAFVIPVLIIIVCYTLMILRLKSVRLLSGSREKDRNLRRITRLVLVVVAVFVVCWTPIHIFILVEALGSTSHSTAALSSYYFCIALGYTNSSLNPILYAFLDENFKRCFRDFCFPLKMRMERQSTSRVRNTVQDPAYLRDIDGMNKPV", "assay": "SAR analysis of small molecule agonists of the kappa opioid receptor via a luminescent beta-arrestin assay - Set 3. [Related pubchem assays (depositor defined):AID1777, AID1785, AID1786, AID1966, AID2133, AID2136, AID2284, AID2500]", "assay_type": "functional"}, "[22]": {"target": "T5, Tyrosine-protein phosphatase non-receptor type 22 (Homo sapiens, UniProt Q9Y2R2)", "T5 sequence (Q9Y2R2 whole entry)": "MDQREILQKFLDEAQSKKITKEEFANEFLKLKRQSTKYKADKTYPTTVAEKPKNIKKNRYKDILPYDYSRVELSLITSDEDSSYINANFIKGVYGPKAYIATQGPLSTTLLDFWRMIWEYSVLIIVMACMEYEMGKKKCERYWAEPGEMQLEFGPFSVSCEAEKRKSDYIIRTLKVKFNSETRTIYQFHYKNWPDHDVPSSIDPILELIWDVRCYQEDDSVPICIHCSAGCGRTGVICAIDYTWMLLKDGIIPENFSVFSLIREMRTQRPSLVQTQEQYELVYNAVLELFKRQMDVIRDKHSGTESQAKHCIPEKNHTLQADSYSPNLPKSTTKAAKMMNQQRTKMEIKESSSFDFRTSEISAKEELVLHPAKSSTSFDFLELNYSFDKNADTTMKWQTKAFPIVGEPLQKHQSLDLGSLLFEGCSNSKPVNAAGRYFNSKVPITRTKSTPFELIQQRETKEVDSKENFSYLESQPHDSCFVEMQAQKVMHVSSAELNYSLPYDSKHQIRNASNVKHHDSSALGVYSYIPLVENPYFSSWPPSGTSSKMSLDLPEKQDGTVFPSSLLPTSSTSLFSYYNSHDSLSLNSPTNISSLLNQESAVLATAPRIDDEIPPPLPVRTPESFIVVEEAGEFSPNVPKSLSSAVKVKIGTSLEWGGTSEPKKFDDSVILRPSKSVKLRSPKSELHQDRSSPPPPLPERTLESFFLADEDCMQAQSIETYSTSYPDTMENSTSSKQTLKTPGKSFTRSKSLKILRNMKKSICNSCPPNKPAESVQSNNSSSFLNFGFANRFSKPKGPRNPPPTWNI", "assay": "LYP1 Fluorescent Assay using OMFP substrate for In Vitro dose response studies. [Related pubchem assays (depositor defined):AID1779, AID1784, AID435024]"}, "[23]": {"target": "T5, Tyrosine-protein phosphatase non-receptor type 22", "assay_type": "functional"}, "[24]": {"target": "T5, Tyrosine-protein phosphatase non-receptor type 22", "assay": "inhibitors of LYP phosphatase, biochemical, fluorescence intensity, uHTS (AID 1779)"}, "[25]": {"target": "T6, Tyrosine-protein phosphatase non-receptor type 7 (Homo sapiens, UniProt P35236)", "T6 sequence (P35236 whole entry)": "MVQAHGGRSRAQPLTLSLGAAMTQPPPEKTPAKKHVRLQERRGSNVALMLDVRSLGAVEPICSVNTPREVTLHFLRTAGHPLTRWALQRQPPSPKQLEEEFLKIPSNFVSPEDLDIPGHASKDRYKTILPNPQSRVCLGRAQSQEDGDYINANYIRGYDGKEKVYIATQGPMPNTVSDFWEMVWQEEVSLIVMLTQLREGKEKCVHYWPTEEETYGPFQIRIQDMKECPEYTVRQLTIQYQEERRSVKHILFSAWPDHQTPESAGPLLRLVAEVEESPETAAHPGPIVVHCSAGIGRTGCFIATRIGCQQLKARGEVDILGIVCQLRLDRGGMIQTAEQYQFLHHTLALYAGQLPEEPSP", "assay_type": "functional"}, "[26]": {"target": "T6, Tyrosine-protein phosphatase non-receptor type 7", "assay": "HTS HePTP Fluorescent Assay using OMFP substrate for In Vitro dose response studies. [Related pubchem assays (depositor defined):AID1059, AID1077, AID1784, AID2068, AID2085, AID435032, AID521]", "assay_type": "functional"}, "[27]": {"target": "T5, Tyrosine-protein phosphatase non-receptor type 22", "assay_type": "functional", "remark": "listed apart in the source"}}, "note": "The source made the active and inactive calls.", "data": [{"smiles": "Cn1c(-c2cc3ccc(OC(=O)C(C)(C)C)cc3oc2=O)nc2ccccc21", "values": [{"measurement": "EC50", "setting": "[1]", "value": "33.5 µM (inactive)"}, {"measurement": "EC50", "setting": "[2]", "value": "37 µM (not active)"}]}, {"smiles": "COc1cccc2sc3ccc(C#CC4(O)CCCCC4)cc3c(=O)c12", "values": [{"measurement": "CC50", "setting": "[3]", "value": "13.9 µM (active)"}, {"measurement": "AC50", "setting": "[4]", "value": "39.6 µM (active)"}, {"measurement": "AC50", "setting": "[5]", "value": "85.7 µM (active)"}]}, {"smiles": "COC(=O)C1=C(N)c2ccccc2C1(C#N)c1ccccc1", "note": "(configuration not stated)", "values": [{"measurement": "IC50", "setting": "[6]", "value": "1.76 µM (active)"}, {"measurement": "EC50", "setting": "[7]", "value": "> 32 µM (inactive)"}, {"measurement": "IC50", "setting": "[8]", "value": "> 32 µM (inactive)"}, {"measurement": "IC50", "setting": "[9]", "value": "2.36 µM (active)"}, {"measurement": "EC50", "setting": "[10]", "value": "> 32 µM (inactive)"}, {"measurement": "EC50", "setting": "[11]", "value": "> 32 µM (inactive)"}, {"measurement": "IC50", "setting": "[12]", "value": "> 32 µM (inactive)"}, {"measurement": "IC50", "setting": "[13]", "value": "> 32 µM (inactive)"}]}, {"smiles": "CCOc1ccc(-c2n[nH]c(C)c2-c2ccccc2)c(O)c1", "values": [{"measurement": "IC50", "setting": "[14]", "value": "> 32 µM (inactive)"}, {"measurement": "EC50", "setting": "[15]", "value": "> 32 µM (inactive)"}, {"measurement": "IC50", "setting": "[16]", "value": "4.14 µM (active)"}, {"measurement": "EC50", "setting": "[17]", "value": "> 32 µM (inactive)"}, {"measurement": "IC50", "setting": "[18]", "value": "18.4 µM (inactive)"}, {"measurement": "IC50", "setting": "[19]", "value": "23.8 µM (inactive)"}, {"measurement": "EC50", "setting": "[20]", "value": "> 32 µM (inactive)"}]}, {"smiles": "FC(F)(F)c1cc(CSc2nnc(-c3ccc(Br)cc3)n2Cc2ccco2)ccc1Cl", "values": [{"measurement": "EC50", "setting": "[21]", "value": "11 µM (inactive)"}]}, {"smiles": "O=C(N/N=C/c1ccc2c(c1)OCO2)c1cc(-c2ccncc2)nc2ccccc12", "values": [{"measurement": "IC50", "setting": "[22]", "value": "> 99 µM (inactive)"}, {"measurement": "IC50", "setting": "[23]", "value": "> 79.4 µM (inactive)"}, {"measurement": "IC50", "setting": "[24]", "value": "> 99 µM (inactive)"}, {"measurement": "IC50", "setting": "[25]", "value": "> 79.4 µM (inactive)"}, {"measurement": "IC50", "setting": "[26]", "value": "> 99 µM (inactive)"}, {"measurement": "IC50", "setting": "[27]", "value": "> 79.4 µM (inactive)"}]}]}
